According to US6291470A, “Indole derivatives process for producing the same and medicinal uses of the same” (Toray Industries, Inc., priority 1992, dated 2001):
Like-named read-outs stand apart in the source and are kept apart here.

Molecular target: T1, δ-opioid receptor (Mus musculus, UniProt P32300)
T1 construct: from tissue; host or cells: vas deferens of male ddy mice
Test: δ-opioid antagonist activity against DPDPE in mouse vas deferens (MVD)
Settings: for Ratio of IC50 Values: DPDPE IC50 with/without 100 nM test compound; for Ratio of IC50 Values / Kb: 20 min; for Kb: against DPDPE, test compound 100 nM
Procedure: Using mouse vas deferens (MVD), the antagonist activity against DPDPE which is a δ-opioid agonist was checked.
In this experiment, ddy male mice were used. In a Magnus' tube which is filled with Krebes-Henseleit solution (NaCl […]; KCl 4.7 mM; CaCl2 2.5 mM; KH2 PO4 1.1 mM; NaHCO3 25 mM; glucose 11 mM) kept at 37° C., and into which an atmosphere consisting of 5% carbon dioxide and 95% oxygen was flown, vas deferens taken from the animals was suspended. Electric stimulation was applied through ring-shaped platinum electrodes mounted on the upper and lower portions of the tube at a frequency of 0.1 Hz and 5.0 mS duration. The contraction of the tissue was recorded on polygraph using isometric transducer.
Then 100 nM of the test compound was added. Twenty minutes later, DPDPE was begun to be added cumulatively. The ratio of IC50 values in the presence and absence of the test compound, Ke value (the molar concentration of the test compound necessary for translating the dose-effect curve to the curve of twice dose) and pA2 value were determined. The pA2 value was determined by the method of Shild et al (Shild, H. O., Br. J. Pharmac. Chamotehr., 4, 277 (1949)). That is, the logarithm of the test compound (log[test compound]) was plotted along the abscissa and the logarithm of the value obtained by subtracting 1 from the ratio of IC50 values was plotted in the presence and absence of the test compound [log(dose ratio-1)] along the ordinate. The pA2 value was determined from the value on the abscissa when the value on the ordinate of the obtained line is 0.

T1 sequence (P32300 whole entry): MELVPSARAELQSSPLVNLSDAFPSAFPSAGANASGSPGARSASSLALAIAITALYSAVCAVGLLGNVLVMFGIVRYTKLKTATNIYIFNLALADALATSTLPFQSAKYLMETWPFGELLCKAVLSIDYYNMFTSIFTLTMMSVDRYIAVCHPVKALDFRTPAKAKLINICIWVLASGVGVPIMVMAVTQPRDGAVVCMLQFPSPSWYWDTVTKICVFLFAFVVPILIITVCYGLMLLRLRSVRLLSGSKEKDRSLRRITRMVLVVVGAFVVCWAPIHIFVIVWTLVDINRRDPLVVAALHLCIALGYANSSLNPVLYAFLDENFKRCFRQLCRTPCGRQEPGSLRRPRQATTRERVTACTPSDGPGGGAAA

| Compound | Ratio of IC50 Values | Kb (read-out: Ke) | δ-antagonist activity relative to NTI (times that of NTI) | Kb (read-out: pA2 (converted)) |
| --- | --- | --- | --- | --- |
| Oc1ccc2c3c1O[C@H]1c4[nH]c5ccc(I)cc5c4C[C@@]4(O)[C@@H](C2)N(CC2CC2)CC[C@]314 [Compound 1, 17-cyclopropylmethyl-6,7-didehydro-4,5α-epoxy-3,14β-dihydroxy-5'-iodo-6,7-2',3'-indolomorphinan] | 8.88 | 12.7 nM | – | – |
| COC(=O)c1ccc2c3c([nH]c2c1)[C@@H]1Oc2c(O)ccc4c2[C@@]12CCN(CC1CC1)[C@H](C4)[C@]2(O)C3 [Compound 77, 17-cyclopropylmethyl-6,7-didehydro-4,5α-epoxy-3,14β-dihydroxy-6'-methoxycarbonyl-6,7-2',3'-indolomorphinan] | 742 | 0.13 nM | 1.3-1.6 times | – |
| Oc1ccc2c3c1O[C@H]1c4[nH]c5c(ccc6cnccc65)c4C[C@@]4(O)[C@@H](C2)N(CC2CC2)CC[C@]314 [Compound 156, 17-cyclopropylmethyl-3,14β-dihydroxy-4,5α-epoxy-6,7-didehydromorphinano[6,7-b]pyrido[4,3-g]indole] | 26.6 | 3.91 nM | – | – |
| C=CCN1CC[C@]23c4c5ccc(O)c4O[C@H]2c2[nH]c4cc(C(=O)OC)ccc4c2C[C@@]3(O)[C@H]1C5 [Compound 115, 17-allyl-6,7-didehydro-4,5α-epoxy-3,14β-dihydroxy-6'-methoxycarbonyl-6,7-2',3'-indolomorphinan] | 75.4 | 1.34 nM | – | – |
| Oc1ccc2c3c1O[C@H]1c4[nH]c5ccc(OC(F)(F)F)cc5c4C[C@@]4(O)[C@@H](C2)N(CC2CC2)CC[C@]314 [Compound 4, 17-cyclopropylmethyl-6,7-didehydro-4,5α-epoxy-3,14β-dihydroxy-5'-trifluoromethoxy-6,7-2',3'-indolomorphinan] | 7.95 | 14.4 nM | – | – |
| OCCc1cccc2[nH]c3c(c12)C[C@@]1(O)[C@H]2Cc4ccc(O)c5c4[C@@]1(CCN2CC1CC1)[C@H]3O5 [Compound 40, 17-cyclopropylmethyl-6,7-didehydro-4,5α-epoxy-3, 14β-dihydroxy-4'-(2-hydroxyethyl)-6,7-2',3'-indolomorphinan] | 4.60 | 27.8 nM | – | – |
| CS(=O)(=O)c1ccc2[nH]c3c(c2c1)C[C@@]1(O)[C@H]2Cc4ccc(O)c5c4[C@@]1(CCN2CC1CC1)[C@H]3O5 [Compound 6, 17-cyclopropylmethyl-6,7-didehydro-4,5α-epoxy-3,14β-dihydroxy-5'-methylsulfonyl-6,7-2',3'-indolomorphinan] | 12.6 | 8.62 nM | – | – |
| NS(=O)(=O)c1ccc2[nH]c3c(c2c1)C[C@@]1(O)[C@H]2Cc4ccc(O)c5c4[C@@]1(CCN2CC1CC1)[C@H]3O5 [Compound 5, 17-cyclopropylmethyl-6,7-didehydro-4,5α-epoxy-3,14β-dihydroxy-5'-sulfamoyl-6,7-2',3'-indolomorphinan] | 4.36 | 29.8 nM | – | – |
| OCCc1ccc2c3c([nH]c2c1)[C@@H]1Oc2c(O)ccc4c2[C@@]12CCN(CC1CC1)[C@H](C4)[C@]2(O)C3 [Compound 41, 17-cyclopropylmethyl-6,7-didehydro-4,5α-epoxy-3,14β-dihydroxy-6'-(2-hydroxyethyl)-6,7-2',3'-indolomorphinan] | 22.1 | 4.74 nM | – | – |
| O=[N+]([O-])c1ccc2c3c([nH]c2c1)[C@@H]1Oc2c(O)ccc4c2[C@@]12CCN(CC1CC1)[C@H](C4)[C@]2(O)C3 [Compound 79, 17-cyclopropylmethyl-6,7-didehydro-4,5α-epoxy-3,14β-dihydroxy-6'-nitro-6,7-2',3'-indolomorphinan] | 60.6 | 1.68 nM | – | – |
| CS(=O)(=O)c1cccc2c3c([nH]c12)[C@@H]1Oc2c(O)ccc4c2[C@@]12CCN(CC1CC1)[C@H](C4)[C@]2(O)C3 [Compound 190, 17-cyclopropylmethyl-6,7-didehydro-4,5α-epoxy-3,14β-dihydroxy-7'-methylsulfonyl-6,7-2',3'-indolomorphinan] | 698 | 0.14 nM | 1.3-1.6 times | – |
| N#Cc1ccc2[nH]c3c(c2c1)C[C@@]1(O)[C@H]2Cc4ccc(O)c5c4[C@@]1(CCN2CC1CC1)[C@H]3O5 [Compound 8, 17-cyclopropylmethyl-6,7-didehydro-4,5α-epoxy-3,14β-dihydroxy-5'-cyano-6,7-2',3'-indolomorphinan] | 3.60 | 38.5 nM | – | – |
| O=C(NCC1CC1)c1cccc2[nH]c3c(c12)C[C@@]1(O)[C@H]2Cc4ccc(O)c5c4[C@@]1(CCN2CC1CC1)[C@H]3O5 [Compound 46, 17-cyclopropylmethyl-6,7-didehydro-4,5α-epoxy-3,14β-dihydroxy-4'-(N-cyclopropylmethylcarbamoyl)-6,7-2',3'-indolomorphinan] | 1.39 | 256 nM | – | – |
| CN(C)S(=O)(=O)c1ccc2c3c([nH]c2c1)[C@@H]1Oc2c(O)ccc4c2[C@@]12CCN(CC1CC1)[C@H](C4)[C@]2(O)C3 [Compound 51, 17-cyclopropylmethyl-6,7-didehydro-4,5α-epoxy-3,14β-dihydroxy-6'-(N,N-dimethylsulfamoyl)-6,7-2',3'-indolomorphinan] | 33.2 | 3.11 nM | – | 2.69 nM |
| COC(=O)c1cccc2[nH]c3c(c12)C[C@@]1(O)[C@H]2Cc4ccc(O)c5c4[C@@]1(CCN2CC1CC1)[C@H]3O5 [Compound 76, 17-cyclopropylmethyl-6,7-didehydro-4,5α-epoxy-3,14β-dihydroxy-4'-methoxycarbonyl-6,7-2',3'-indolomorphinan] | 6.82 | 17.2 nM | – | – |
| CCOC(=O)Cc1cccc2[nH]c3c(c12)C[C@@]1(O)[C@H]2Cc4ccc(O)c5c4[C@@]1(CCN2CC1CC1)[C@H]3O5 [Compound 48, 17-cyclopropylmethyl-6,7-didehydro-4,5α-epoxy-3,14β-dihydroxy-4'-ethoxycarbonylmethyl-6,7-2',3'-indolomorphinan] | 5.88 | 20.5 nM | – | – |
| CCOC(=O)c1ccc2[nH]c3c(c2c1)C[C@@]1(O)[C@H]2Cc4ccc(O)c5c4[C@@]1(CCN2CC1CC1)[C@H]3O5 [Compound 3, 17-cyclopropylmethyl-6,7-didehydro-4,5α-epoxy-3,14β-dihydroxy-5'-ethoxycarbonyl-6,7-2',3'-indolomorphinan] | 5.34 | 23 nM | – | – |
| C=CCN1CC[C@]23c4c5ccc(O)c4O[C@H]2c2[nH]c4cccc(C(=O)OC)c4c2C[C@@]3(O)[C@H]1C5 [Compound 114, 17-allyl-6,7-didehydro-4,5α-epoxy-3,14β-dihydroxy-4'-methoxycarbonyl-6,7-2',3'-indolomorphinan] | 20.7 | 5.08 nM | – | – |
| Oc1ccc2c3c1O[C@H]1c4[nH]c5c(C(F)(F)F)cccc5c4C[C@@]4(O)[C@@H](C2)N(CC2CC2)CC[C@]314 [Compound 118, 17-cyclopropylmethyl-6,7-didehydro-4,5α-epoxy-3,14β-dihydroxy-7'-trifluoromethyl-6,7-2',3'-indolomorphinan] | 52.9 | 1.93 nM | – | – |
| CCOC(=O)Cc1ccc2c3c([nH]c2c1)[C@@H]1Oc2c(O)ccc4c2[C@@]12CCN(CC1CC1)[C@H](C4)[C@]2(O)C3 [Compound 49, 17-cyclopropylmethyl-6,7-didehydro-4,5α-epoxy-3,14β-dihydroxy-6'-ethoxycarbonylmethyl-6,7-2',3'-indolomorphinan] | 27.8 | 3.73 nM | – | – |
| CS(=O)(=O)c1ccc2c3c([nH]c2c1)[C@@H]1Oc2c(O)ccc4c2[C@@]12CCN(CC1CC1)[C@H](C4)[C@]2(O)C3 [Compound 188, 17-cyclopropylmethyl-6,7-didehydro-4,5α-epoxy-3,14β-dihydroxy-6'-methylsulfonyl-6,7-2',3'-indolomorphinan] | 56.0 | 1.82 nM | – | – |
